Reference: patent US6057371A, “Sigma receptor ligands and the use thereof” (Virginia Commonwealth University, priority 1992, dated 2000)
Like-named read-outs stand apart in the source and are kept apart here.

Legend:
sigma-2 binding site = target: T1, sigma-2 binding site (Cavia porcellus, UniProt H0V073); assay: biochemical; design: species or system guinea pig; conditions: for IC50: Table 17, read-out: IC50 (nM) at sigma-2
T1 construct: Guinea pig whole membrane preparations (P2 microsomal fraction); from tissue; host or cells: guinea pig membranes (P2 microsomal fraction), as described by Weber et al; brain inferred from the sister test b489
T1 sequence (H0V073 1-176): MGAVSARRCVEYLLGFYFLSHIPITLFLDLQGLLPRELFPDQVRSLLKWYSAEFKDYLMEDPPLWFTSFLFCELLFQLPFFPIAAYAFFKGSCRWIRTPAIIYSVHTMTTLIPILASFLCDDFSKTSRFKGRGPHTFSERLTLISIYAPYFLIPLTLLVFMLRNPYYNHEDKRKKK
Description: For the standard equilibrium assay, the mixtures were incubated for 30 min. at room temperature, then filtered and the radioactivity determined as described above.

PCP receptor = PCP receptor binding, ^3 H-MK-801; design: species or system rat; conditions: Table 4
Description: PCP receptor binding assays against ^3 H-MK-801 were conducted as described by Keana et al., Proc. Natl. Acad. Sci (USA) 86: 5631-5635 (1989); Keana et al., Life Sciences 43: 965-973 (1988). For (+) ^3 H-MK-801 binding, 1 nM of radioligand was incubated with about 100 ug of thawed rat brain membrane protein for 4 hr at room temperature. The assays were carried out in 5 mM Tris/acetate and were stopped by rapid filtration through Whatman GF/B or Schleicher & Schuell no. 32 glass fiber filters (presoaked in 0.05% polyethylenamine).

sigma-1 binding site = target: T2, sigma-1 binding site (Cavia porcellus, UniProt Q60492); assay: biochemical; design: species or system guinea pig; conditions: for IC50 ratio of sigma-1/sigma-2 (sigma-1 selective compounds): less than about 0.1, see Table 10
T2 construct: Guinea pig whole membrane preparations (P2 microsomal fraction); from tissue; host or cells: guinea pig membranes (P2 microsomal fraction), as described by Weber et al; brain inferred from the sister test b489
T2 sequence (Q60492 whole entry): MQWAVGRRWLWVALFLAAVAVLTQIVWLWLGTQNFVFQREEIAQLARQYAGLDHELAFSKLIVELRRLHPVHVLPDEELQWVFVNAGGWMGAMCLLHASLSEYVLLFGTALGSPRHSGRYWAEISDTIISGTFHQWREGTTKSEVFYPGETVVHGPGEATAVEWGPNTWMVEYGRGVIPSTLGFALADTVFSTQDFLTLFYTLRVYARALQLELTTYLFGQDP
Description: [^3 H]DTG was purchased from DuPont/NEN.
The radioactivity on the filters was determined by scintillation spectrometry at an efficiency of about 50% using Cytoscint (ICN) scintillation fluid.

5-HT1A receptor = target: T3, 5-HT1A receptor (Rattus norvegicus, UniProt P19327); assay: biochemical; format: binding; design: 47: 529-540 (1986); from tissue; host or cells: brain tissue, inferred from the cited method (rat frontal cortex)
T3 sequence (P19327 1-422): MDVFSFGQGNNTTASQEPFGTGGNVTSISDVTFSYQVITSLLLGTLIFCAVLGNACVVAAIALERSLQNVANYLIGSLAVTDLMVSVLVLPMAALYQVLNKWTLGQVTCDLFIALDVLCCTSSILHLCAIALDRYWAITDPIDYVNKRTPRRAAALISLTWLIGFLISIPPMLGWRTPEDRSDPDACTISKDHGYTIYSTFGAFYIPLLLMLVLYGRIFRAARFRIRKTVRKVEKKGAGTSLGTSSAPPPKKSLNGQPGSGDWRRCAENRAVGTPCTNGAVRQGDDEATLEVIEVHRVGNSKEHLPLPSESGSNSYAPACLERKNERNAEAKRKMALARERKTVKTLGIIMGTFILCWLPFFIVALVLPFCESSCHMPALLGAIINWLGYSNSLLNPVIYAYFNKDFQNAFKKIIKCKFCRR
Description: Further sigma receptor binding assays against [^3 H]DTG and 5HT-1A binding assays were conducted according to the procedure outlined in the previous examples.

Dopamine D1 receptor = target: T4, Dopamine D1 receptor (Rattus norvegicus, UniProt P18901); assay: Dopamine D1 receptor binding, [^3 H]SCH-23390, striatal membranes; conditions: Table 4
T4 construct: Rat striatal membranes were prepared from frozen tissue; from tissue; host or cells: rat striatum, frozen tissue
T4 sequence (P18901 whole entry): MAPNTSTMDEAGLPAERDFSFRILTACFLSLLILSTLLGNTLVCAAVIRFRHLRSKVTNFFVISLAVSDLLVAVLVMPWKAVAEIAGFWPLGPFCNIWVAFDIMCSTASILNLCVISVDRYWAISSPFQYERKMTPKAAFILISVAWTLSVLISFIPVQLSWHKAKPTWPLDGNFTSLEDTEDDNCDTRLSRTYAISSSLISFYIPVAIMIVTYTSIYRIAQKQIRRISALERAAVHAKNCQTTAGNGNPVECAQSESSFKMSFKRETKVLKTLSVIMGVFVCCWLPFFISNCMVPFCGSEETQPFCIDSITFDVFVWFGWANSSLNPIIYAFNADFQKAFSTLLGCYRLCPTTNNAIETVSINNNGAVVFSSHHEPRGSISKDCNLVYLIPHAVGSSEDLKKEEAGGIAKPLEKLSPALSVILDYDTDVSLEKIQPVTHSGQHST
Description: Dopamine D1 and D2 receptor binding assays were performed as described by Billard et al., Life Sci. 35: 1885-1893 (1984) using [^3 H]SCH-23390 for the D1 receptors and [^3 H]domperidone for the D2 receptors (Baudry et al., Arch. Pharmacol. 308: 231-237 (1979).
Rat striatal membranes were prepared from frozen tissue by Poltron homogenization in 25 volumes of ice cold Tris-EDTA buffer (50 mM Tris-HCl, 1 mM EDTA, pH 7.4 at 4° C.). The homogenate was centrifuged at 48,000× g for 10 min. at 4° C., and the pellet was resuspended in 25 volumes of the same buffer. This suspension was then incubated at 37° C. for 15 min., followed by recentrifugation as before. The resulting pellet was resuspended in 267 volumes of assay buffer (50 mM Tris-HCl, 120 mM NaCl, 5 mM KCl, 2 mM CaCl2, 1 mM MgCl2, pH 7.4 at 37° C.).
The binding assays were conducted with 100 uL of [^3 H]SCH-23390 or [^3 H]domperidone (to give about 1 nM final), 100 uL of buffer or drug solution, and 800 uL of membrane suspension (to give about 250 ug of striatal membrane protein per assay). The tubes were incubated at 37° C. for 60 min. The assays were stopped by rapid filtration over Schleicher & Schuell #32 or Whatman GF/B glass fiber filters (presoaked in 0.5% polyethyleneimine for [^3 H]domperidone binding), followed by two 3 mL washes of ice cold buffer using a Brandel cell harvester. After vigorous shaking, the filter disks were counted at 52% efficiency in 5 mL of Cytoscint (ICN).

[1] = Table 10, read-out: SIGMA-2 KI vs. 3H-DTG + PENTAZOCINE MEAN
[2] = Table 10, read-out: SIGMA-1 KI vs. 3H-PENTAZOCINE MEAN
[3] = Table 12, read-out: IC50 (nM) at sigma-1
[4] = Table 13, read-out: Sigma-1 IC50

Structure (SMILES) | Ki (sigma-2 binding site; [1]) [nM] | IC50 (PCP receptor) [nM] | Ki (sigma-1 binding site; [2]) [nM] | S1/S2 Ratio (sigma-1 binding site; Table 10, sigma-1/sigma-2) | Ratio 5-HT1A /σ (5-HT1A receptor; Table 5) | IC50 (5-HT1A receptor; Table 5, read-out: 5-HT1A IC50) [nM] | further results
CC(Cc1cccc(C(F)(F)F)c1)NCCCc1ccccc1 (racemic) [Compound 23, (±) N-[1-(3'-Trifluoromethyl)-2-propyl]-3-phenylpropylamine] | 20.8 | > 10000 | 8.75 | 0.420 | 25 | 106 | IC50 (sigma-2 binding site): 21 nM; IC50 (sigma-1 binding site; [3]): 8.8 nM
CC(Cc1cccc2ccccc12)NCCCc1ccccc1 (racemic) [Compound 16, (±) N-[1-(1'-Naphthyl)-2-propyl]-3-phenylpropylamine] | 152 | > 10000 | – | – | – | 44.8 | Ki (sigma-2 binding site; Example 9, read-out: sigma-2 binding affinity): 150 nM
CC(Cc1cccc(Br)c1)NCCCc1ccccc1 (racemic) [Compound 20, (±) N-[1-(3'-Bromophenyl)-2-propyl]-3-phenylpropylamine] | 26.1 | > 10000 | 9.65 | 0.369 | 17 | 108 | IC50 (sigma-2 binding site): 26 nM; IC50 (sigma-1 binding site; [3]): 9.6 nM
C[C@@H](Cc1ccccc1)NCCCc1ccccc1 [Compound 43, N-(3-phenylpropyl)-1-pheny1-2-propylamine] | 37.5 | > 10000 | – | – | – | 1110 | 5-HT1A affinity relative to antipode (5-HT1A receptor; S(+) isomer of cmp. #1): only one-tenth the affinity of its antipode
C[C@H](Cc1ccccc1)NCCCc1cccc2ccccc12 [Compound 11, R(-) N-(1-phenyl-2-propyl)-3-(1-naphthyl)propylamine] | – | > 10000 | – | – | 11 | 104 | reduction in sigma-2 affinity vs. cmp. #1 (sigma-2 binding site; Example 9): about 4 fold; IC50 (sigma-1 binding site; [4]): 8.6 nM
CCCC(N)Cc1ccccc1 (racemic) [Compound 34, (±) 1-Phenyl-2-aminopentane] | 10300 | > 10000 | 1180 | 0.115 | 2.6 | 6650 | –
C[C@H](Cc1ccccc1)NCCCc1ccc2ccccc2c1 [Compound 12, R(-) N-(1-phenyl-2-propyl)-3-(2-naphthyl)propylamine] | 258 | > 10000 | 5.73 | 0.022 | 56 | 132 | reduction in sigma-2 affinity vs. cmp. #1 (sigma-2 binding site; Example 9): about 4 fold; IC50 (sigma-1 binding site; [4]): 5.7 nM; IC50 ratio of sigma-1/sigma-2 (sigma-1 selective compounds) (sigma-1 binding site): less than 0.1
CC(Cc1ccccc1)NCCCCc1ccccc1 (racemic) [Compound 10, (±) N-(1-phenyl-2-propyl)-4-phenylbutylamine] | 53.2 | > 10000 | 4.68 | 0.088 | 22 | 212 | change in sigma-1 affinity vs. compound No. 1, words (sigma-1 binding site; Example 8): doubles affinity; IC50 (sigma-1 binding site; Table 14, read-out: IC50 (nM) at sigma-1): 4.7 nM; IC50 ratio of sigma-1/sigma-2 (sigma-1 selective compounds) (sigma-1 binding site): less than 0.1
c1ccc(CCCNC2CCc3ccccc3CC2)cc1 [Compound 49] | – | > 10000 | – | – | – | 313 | IC50 (Dopamine D1 receptor): > 10000 nM; Ratio 5-HT1A /σ (5-HT1A receptor): 30
C[C@@H](Cc1ccccc1)NCCCCc1ccccc1 [Compound 44, N-(4-phenylbutyl)-1-phenyl-2-propylamine] | – | > 10000 | – | – | – | – | Ki (sigma-2 binding site; SIGMA-2 KI vs. 3H-DTG + P[…]): 35.8 nM; Ki (sigma-1 binding site; SIGMA-1 KI vs. 3H-P[…]): 19.4 nM; S1/S2 Ratio (sigma-1 binding site; guinea pig, microsomes): .543; IC50 (5-HT1A receptor): 278 nM; Ratio 5-HT1A /σ (5-HT1A receptor): 40
Clc1cccc(N2CCN(CCc3ccccc3)CC2)c1 [Compound 32, 1-(3'-Chlorophenyl)-4-(2-phenylethyl)piperazine] | 42.4 | > 10000 | 14.9 | 0.352 | .80 | 8.73 | –
C[C@@H](Cc1ccccc1)NCCCCCc1ccccc1 [Compound 45, N-(5-phenylpentyl)-1-phenyl-2-propylamine] | – | > 10000 | – | – | – | – | Ki (sigma-2 binding site; SIGMA-2 KI vs. 3H-DTG + P[…]): 18.5 nM; IC50 (sigma-1 binding site): 0.88 nM; change in sigma-1 affinity vs. compound No. 1, words (sigma-1 binding site): substantially increases affinity; Ki (sigma-1 binding site; SIGMA-1 KI vs. 3H-P[…]): 0.88 nM; S1/S2 Ratio (sigma-1 binding site; guinea pig, microsomes): .048; IC50 (5-HT1A receptor): 594 nM; Ratio 5-HT1A /σ (5-HT1A receptor): 100
COc1ccc(CC(C)NCCCc2ccccc2)cc1 (stereo not shown) [Compound 19] | – | > 10000 | – | – | – | 114 | IC50 (Dopamine D1 receptor): > 10000 nM; Ratio 5-HT1A /σ (5-HT1A receptor): 7.6
CC(Cc1ccc2ccccc2c1)NCCCc1ccccc1 (racemic) [Compound 17, (±) N-[1-(2'-Naphthyl)-2-propyl]-3-phenylpropylamine] | 222 | > 10000 | – | – | – | 87.8 | –
CC(Cc1ccc2ccccc2c1)NCCCc1ccccc1 (stereo not shown) [Compound 18, N-(3-phenylpropyl)-1-(2-naphthyl)-2-propylamine] | 15.1 | > 10000 | – | – | – | 588 | –
CC(Cc1ccc(Br)cc1)NCCCc1ccccc1 (racemic) [Compound 21, (±) N-[1-(4'-Bromophenyl)-2-propyl]-3-phenylpropylamine] | 39.1 | > 10000 | – | – | – | 195 | IC50 (sigma-2 binding site): 39 nM
